In patent US20140065632A1, “MARKER GENE FOR DETECTION OF TUMOR PROMOTER, AND METHOD FOR DETECTION OF TUMOR PROMOTER” (priority 2007, published 2014):
Like-named read-outs stand apart in the source and are kept apart here.

Assays:
[1] = tested on: Orm1; assay: Quantitative RT-PCR of Orm1 gene expression in the BALB/c 3T3 cell transformation assay; assay type: cell-based, mouse
[2] = tested on: BALB/c 3T3 cells; parameters: focus formation ability (intensity of the tumor-promoting activity): key to the marks not given beside the values
[3] = tested on: Bhas cells
[4] = Example 3, MCA-initiated BALB/c 3T3 cells, RNA 48 hours after addition of test substance, normalized by β-actin

Compound | Expression level of Orm1 (rates relative to the negative control) [1, 4] | Focus formation in the BALB/c 3T3 cell transformation assay [2] | ability to form foci in the BALB/c 3T3 cell transformation assay [2] | ability to form foci in the Bhas cellular transformation assay [3] | Expression level of Orm1 (rates relative to the negative control) [1] | focus formation ability (intensity of the tumor-promoting activity) [2] | focus formation in the BALB/c 3T3 cell transformation assay [2]
CC(C)[C@@H]1CC[C@@H](C)C[C@H]1O (racemic) [dl-menthol, DL-menthol] | 0.9 | − | unable to form foci |  |  |  | 
O=[N+]([O-])c1cccc2ccccc12 [1-nitronaphthalene] |  | − | unable to form foci |  |  |  | 
c1ccc2cc3c(ccc4ccccc43)cc2c1 [Benz[a]anthracen, benz[a]anthracene] |  | − | unable to form foci |  |  |  | 
c1ccc2c(c1)ccc1c3ccccc3ccc21 [Chrysene, chrysene] |  | − | unable to form foci | able to form foci |  |  | 
OC[C@@H](O)[C@@H](O)[C@H](O)[C@H](O)CO [D-mannitol] |  | − | unable to form foci |  |  |  | 
C[C@H](CCC(=O)O)[C@H]1CC[C@H]2[C@@H]3CC[C@@H]4C[C@H](O)CC[C@]4(C)[C@H]3CC[C@]12C [Lithocholic acid, lithocholic acid] |  | + | able to form foci | able to form foci |  |  | 
C=C(C)[C@@]12O[C@@]3(c4ccccc4)O[C@@H]1[C@@H]1[C@@H]4O[C@]4(CO)[C@@H](O)[C@]4(O)C(=O)C(C)=C[C@H]4[C@@]1(O3)[C@H](C)[C@H]2OC(=O)/C=C/C=C/c1ccccc1 [Mezerein, mezerein] |  | + | able to form foci | able to form foci | 2.6 | +++ | 
C=C1[C@@H](O)[C@@H]2O[C@]3(CC[C@H](/C=C/[C@@H](C)[C@@H]4CC(C)=C[C@@]5(O[C@H](C[C@@](C)(O)C(=O)O)CC[C@H]5O)O4)O3)CC[C@H]2O[C@@H]1[C@@H](O)C[C@H](C)[C@H]1O[C@@]2(CCCCO2)CC[C@H]1C [Okadaic acid, okadaic acid] |  | + | able to form foci |  |  | +++ | 
c1cc2cccc3c4cccc5cccc(c(c1)c23)c54 [Perylene, perylene] |  | − | unable to form foci | able to form foci |  |  | 
CCC1(c2ccccc2)C(=O)NC(=O)NC1=O [Phenobarbital sodium, phenobarbital sodium] |  | + | able to form foci |  |  | ++ | 
O=C1NS(=O)(=O)c2ccccc21.[Na] [Saccharin sodium, saccharin sodium] |  | + | able to form foci |  |  | ++ | 
O=[As]O [Sodium arsenite, sodium arsenite] |  | + | able to form foci |  |  | ++ | 
O=C1O[C@H]([C@@H](O)CO)C([O-])=C1O.[Na+] [Sodium ascorbate, sodium ascorbate] |  | − | unable to form foci |  |  |  | 
[Na+].[Na+].[Na+].[O]=[V]([O-])([O-])[O-] [Sodium orthovanadate, sodium orthovanadate] |  | + | able to form foci |  | 1.5 | +++ | 
CC(C)(C)c1cc(O)ccc1O [TBHQ, tert-butylhydroquinone] |  | − | unable to form foci | able to form foci |  |  | 
CCCCCCCCCCCCCC(=O)O[C@@H]1[C@@H](C)[C@@]2(O)[C@@H](C=C(CO)C[C@]3(O)C(=O)C(C)=C[C@@H]23)[C@@H]2C(C)(C)[C@]12OC(C)=O [TPA, phorbol 12-myristate 13-acetate] |  | + | able to form foci | able to form foci | 2.3 | +++ | Significant focus formation was observed
[Cl-].[Cl-].[Zn+2] [Zinc chloride, zinc chloride] |  | + | able to form foci | able to form foci | 3.4 | +++ | Significant focus formation was observed
COc1ccc(O)c(C(C)(C)C)c1 [butylhydroxyanisol] |  |  |  |  |  | ++ | 
insulin | 2.0 | + | able to form foci | able to form foci |  | ++ | 
